Columns and labels:
[1] = target: T1, Toll-like receptor 7 (Homo sapiens, UniProt Q9NYK1); assay: Agonist activity at TLR7 in human HEK-SEAP reporter cell assessed as NF-kappaB activation; type: cell-based
T1 sequence (Q9NYK1 whole entry): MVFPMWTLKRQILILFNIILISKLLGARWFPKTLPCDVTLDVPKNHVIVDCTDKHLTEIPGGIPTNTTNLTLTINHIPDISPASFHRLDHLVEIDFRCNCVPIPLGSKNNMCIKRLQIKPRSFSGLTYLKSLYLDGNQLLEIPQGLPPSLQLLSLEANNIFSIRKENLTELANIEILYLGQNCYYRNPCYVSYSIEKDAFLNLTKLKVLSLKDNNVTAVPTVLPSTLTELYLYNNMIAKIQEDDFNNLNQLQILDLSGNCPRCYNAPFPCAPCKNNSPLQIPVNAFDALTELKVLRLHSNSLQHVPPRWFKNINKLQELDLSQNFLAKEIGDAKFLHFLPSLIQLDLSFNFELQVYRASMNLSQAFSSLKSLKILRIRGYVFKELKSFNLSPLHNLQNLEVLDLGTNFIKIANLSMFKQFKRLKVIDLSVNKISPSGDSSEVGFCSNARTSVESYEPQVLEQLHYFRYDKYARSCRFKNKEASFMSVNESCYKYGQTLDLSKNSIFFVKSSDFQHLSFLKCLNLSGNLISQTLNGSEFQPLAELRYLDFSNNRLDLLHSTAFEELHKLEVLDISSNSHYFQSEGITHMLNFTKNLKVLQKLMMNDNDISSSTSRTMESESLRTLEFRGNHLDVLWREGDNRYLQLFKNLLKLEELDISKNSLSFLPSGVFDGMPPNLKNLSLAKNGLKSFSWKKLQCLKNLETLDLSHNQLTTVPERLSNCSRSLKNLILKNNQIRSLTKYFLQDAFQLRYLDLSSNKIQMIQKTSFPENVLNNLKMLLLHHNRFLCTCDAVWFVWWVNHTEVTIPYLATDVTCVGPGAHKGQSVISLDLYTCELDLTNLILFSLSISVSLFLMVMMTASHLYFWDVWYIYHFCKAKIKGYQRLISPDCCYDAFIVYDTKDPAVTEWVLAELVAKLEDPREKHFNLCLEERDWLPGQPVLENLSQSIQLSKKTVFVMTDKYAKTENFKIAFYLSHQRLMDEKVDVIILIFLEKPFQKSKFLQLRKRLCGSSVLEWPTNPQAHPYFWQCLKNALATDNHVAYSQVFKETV

[2] = target: T2, Toll-like receptor 8 (Homo sapiens, UniProt Q9NR97); assay: Agonist activity at TLR8 in human HEK-SEAP reporter cell assessed as NF-kappaB activation; type: cell-based
T2 sequence (Q9NR97 whole entry): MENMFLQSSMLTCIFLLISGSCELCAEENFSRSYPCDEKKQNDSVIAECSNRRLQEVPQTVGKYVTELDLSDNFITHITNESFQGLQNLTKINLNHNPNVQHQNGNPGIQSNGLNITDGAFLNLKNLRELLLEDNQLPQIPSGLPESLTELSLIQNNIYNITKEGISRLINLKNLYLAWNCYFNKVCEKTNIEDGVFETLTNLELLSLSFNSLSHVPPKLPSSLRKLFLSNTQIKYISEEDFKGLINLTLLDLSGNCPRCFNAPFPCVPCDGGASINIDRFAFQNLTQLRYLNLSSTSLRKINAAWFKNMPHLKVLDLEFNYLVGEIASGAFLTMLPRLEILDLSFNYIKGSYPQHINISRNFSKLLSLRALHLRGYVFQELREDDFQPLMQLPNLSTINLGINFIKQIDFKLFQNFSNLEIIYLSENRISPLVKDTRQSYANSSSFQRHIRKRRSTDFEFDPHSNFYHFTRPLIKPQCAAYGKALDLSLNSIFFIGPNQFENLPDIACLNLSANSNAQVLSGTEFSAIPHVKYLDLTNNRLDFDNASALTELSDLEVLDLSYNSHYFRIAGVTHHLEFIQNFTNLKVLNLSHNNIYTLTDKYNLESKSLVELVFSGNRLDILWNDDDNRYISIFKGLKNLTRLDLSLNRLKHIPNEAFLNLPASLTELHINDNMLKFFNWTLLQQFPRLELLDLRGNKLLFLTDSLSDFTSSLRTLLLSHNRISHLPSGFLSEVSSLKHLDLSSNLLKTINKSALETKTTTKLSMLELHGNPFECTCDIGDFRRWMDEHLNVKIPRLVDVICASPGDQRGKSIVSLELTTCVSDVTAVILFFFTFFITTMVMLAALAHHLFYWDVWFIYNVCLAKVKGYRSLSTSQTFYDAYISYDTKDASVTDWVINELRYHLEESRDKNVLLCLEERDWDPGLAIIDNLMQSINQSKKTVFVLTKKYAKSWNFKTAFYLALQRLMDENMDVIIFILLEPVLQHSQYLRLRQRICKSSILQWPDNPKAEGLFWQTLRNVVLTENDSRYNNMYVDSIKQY

EC50 [1] [µM]	EC50 [2] [µM]	Compound
0.99	–	CC(O)Cn1c(CC2CC2)nc2c(N)nc3ccccc3c21 (centres undefined)
–	27	CC(C)Cc1nc2c(N)nc3ccccc3c2n1CC(C)O (centres undefined)
13.2	–	COC(=O)c1ccc2c(c1)nc(N)c1nc(CC3CC3)n(CC(C)O)c12 (centres undefined)
0.21	–	CC(C)Cc1nc2c(N)nc3ccccc3c2n1Cc1ccc(CN)cc1

Source: ChEMBL document CHEMBL5143565, “Toll-like receptor 7 and 8 imidazoquinoline-based agonist/antagonist pairs” (Bioorg Med Chem Lett, 2022)
